Where two headings read alike, the source gives them in different places.
What was measured:
[1] = system: anxiety in the adult male rat; test: Suppression of anxiety in the adult male rat (Vogel anticonflict test); type: in vivo; details: read-out: Anticonflict MED
Method: The anxiolytic activity of selected compounds of the invention was assessed by determining their ability to encourage behavior that had been suppressed by punishment (Vogel, J. R. et al. Psychopharmacology 1971, 21, 1). Male rats were deprived of water for 48 hours and were deprived of food for 24 hours prior to testing. After the first 24 hours of water deprivation, they were placed in the conflict chamber for a training period; wherein, they were allowed 200 unpunished licks from a bottle containing tap water. The experiment was run the next day. At the expected time of peak activity, the animals were placed in the chamber and allowed access to tap water. […] Their first lick initiates a 3-min test session. Subsequently,every 20th lick was punished by a 0.2-s shock delivered via the stainless-steel drinking-tube. Vehicle-treated control animals generally were willing to accept a median number of 3 to 8 shocks per test session. […] The Wilcoxon rank-sum test (Mann-WhitneyU-test) was used to test for an increase (p<0.05, 1-tailed) in the median number of shocks in drug-treated groups, compared to a concurrently run vehicle-treated group. The biological assay is considered to be valid if the effects of a known anxiolytic (positive control) are detected, within the same experiment. A compound was considered active if there is a significant difference in the median number of shocks tolerated between the drug-treated group and the control group. The MED was defined as the minimum dose of the drug-treatment as analyzed using the Wilcoxon rank-sum test (SAS; Statistical Analysis System, version 5.16). If the MED value is greater than 10, an active dose of the compound being tested had not been determined.

[2] = system: metrazol-induced convulsions; test: Suppression of metrazol-induced convulsions (antimetrazol); type: in vivo, mouse (male CD1); details: Mus musculus, 0.5 h; IP; clonic convulsions, 30 min observation
Method: Selected compounds of the invention were tested for their ability to reduce metrazol-induced convulsions in mice (Swinyard, E. A. J. Am. Pharm Assoc. 1949, 38, 201). Male CD1 mice, were fasted at least 16 hours, were divided into equal groups and test compounds or vehicle were administered parenterally. Water was not withheld except during the period of observations. At the time of suspected peak activity, anti-pentylenetetrazol (anti-metrazol) activity was evaluated by the subcutaneous administration of the CD90 dose of metrazol (the dose of metrazol was determined from the dose-response curve producing clonic convulsions in 90% of animals that received the corresponding vehicle for this experiment). Metrazol was dissolved in 0.9% sodium chloride solution, and its dose volume was 10 ml/kg. Animals were housed individually for observation of clonic convulsions, tonic convulsions and death for a period of 30 min. Test compounds that blocked the clonic seizure component of the convulsion in at least 50% of the animals were considered active. The biological assay was considered to be valid if the effects of a known anticonvulsant (positive control) were detected, within the same experiment. Activity was reported as percent reduction of clonic convulsions from the vehicle group. The ED50 values of active compounds were calculated by the method of probits (Finney, D. J. 1971. Probit Analysis. London: Cambridge University Press) and are listed in Tables 1.

[3] = system: metrazol-induced convulsions; test: as above; type: in vivo, mouse (male CD1); details: Mus musculus, 0.5 h; PO; clonic convulsions, 30 min observation
[4] = target: benzodiazepine site of the GABA-A receptor; test: Benzodiazepine receptor binding assay (inhibition of 3H-flunitrazepam binding); details: read-out: 3H-Flunitrazepam IC50; ca. 3 nM 3H-flunitrazepam, 10-20 min at 25° C.
motor coordination = test: Horizontal screen test for motor coordination; type: in vivo, mouse (male CD1); details: Mus musculus, CD1 mice

| Structure (SMILES) | minimal effective dose ([1]; IP) [mg/kg] | minimal effective dose ([1]; PO) [mg/kg] | ED50 [2] [mg/kg] | ED50 [3] [mg/kg] | IC50 [4] [µM] | ED50 (motor coordination; IP) [mg/kg] | ED50 (motor coordination; PO) [mg/kg] |
| --- | --- | --- | --- | --- | --- | --- | --- |
| O=C1CCN2C(=C1C(=O)Nc1c(F)cccc1F)Nc1cnccc12 [compound 10] | > 10 | ~3 | > 10 | > 30 | 0.0177 | – | – |
| O=C1CCn2c(nc3cccnc32)C1C(=O)Nc1ccccc1 (stereo not shown) [CP #2, 8,9-Dihydro-7-keto-N-phenyldipyrido [1,2-a:3',2'-d] imidazole-6-carboxamide] | > 10 | > 30 | > 10 | > 30 | > 4.35 | > 10 | – |
| O=C1CCN2C(=C1C(=O)Nc1c(F)cc(F)cc1F)Nc1cccnc12 [CP #4] | > 10 | > 30 | ~10 | > 30 | 1.96 | ~10 | – |
| O=C1CCn2c(nc3ncccc32)C1C(=O)Nc1ccccc1F (stereo not shown) [CP #5, 6,7-dihydro-8-keto-N-(2-fluorophenyl)dipyrido[1,2-a:2',3'-d]imidazole-9-carboxamide] | 10 | > 30 | 1 | 10 | 0.0035 | 3 | – |
| O=C1CCn2c(nc3ncccc32)C1C(=O)Nc1c(F)cccc1F (stereo not shown) [CP #9, 6,7-dihydro-8-keto-N-(2,6-difluorophenyl)dipyrido[1,2-a:2',3'-d]imidazole-9-carboxamide] | > 10 | > 10 | ~30 | ~30 | 0.0301 | ~10 | – |
| COCCN1C2=C(C(=O)Nc3ccccc3F)C(=O)CCN2c2ncccc21 [compound 11] | – | > 10 | – | – | 0.285 | – | – |
| O=C1CCN2C(=C1C(=O)Nc1ccccc1F)Nc1cccnc12 [compound 1] | > 10 | > 30 | 10 | > 30 | – | 10 | – |
| CN1C2=C(C(=O)Nc3ccccc3F)C(=O)CCN2c2ncccc21 [compound 12] | – | > 10 | – | – | > 0.312 | – | – |
| O=C1CCn2c(nc3ncccc32)C1C(=O)Nc1ccccc1 (stereo not shown) [CP #6, 6,7-dihydro-8-keto-N-phenyldipyrido[1,2-a:2',3'-d]imidazole-9-carboxamide] | > 10 | 30 | 3 | < 30 | 0.0083 | 3 | – |
| O=C1CCn2c(nc3ncccc32)C1C(=O)Nc1ccncc1 (stereo not shown) [CP #7, 6,7-dihydro-8-keto-N-(4-pyridyl)dipyrido[1,2-a:2',3'-d]imidazole-9-carboxamide] | 30 | 10 | > 30 | > 10 | 0.619 | – | > 10 |
| O=C1CCN2C(=C1C(=O)Nc1ccncc1)Nc1cccnc12 [compound 3] | > 10 | > 30 | > 10 | > 30 | – | > 10 | – |
| O=C1CCn2c(nc3ncccc32)C1C(=O)Nc1c(F)cc(F)cc1F (stereo not shown) [CP #8, 6,7-dihydro-8-keto-N-(2,4,6-trifluorophenyl)dipyrido[1,2-a:2',3'-d]imidazole-9-carboxamide] | > 10 | > 30 | 10 | > 30 | 0.22 | > 30 | – |
